pKi: −log10 of the molar value. The source made the active and inactive calls. The rule behind the calls is not given here. Where a SMILES comes first, the peptide text is derived from it. Bridges are numbered along the chain shown (N, C = ends). The star is where a group is joined. Carbamoyl = NC(=O)*
Assays:
[1] = molecular target: Melanocyte-stimulating hormone receptor (Homo sapiens, UniProt Q01726); test: Displacement of [125I]-NDP-alpha-MSH from human MC1R expressed in CHO cells by Topcount beta counter analysis; type: cell-based; conditions: for pKi: read-out: Ki; for Ki: read-out: pKi (converted)
Melanocortin receptor 3 = Melanocortin receptor 3 (Homo sapiens, UniProt P41968); test: Displacement of [125I]-NDP-alpha-MSH from human MC3R expressed in HEK293 cells by Topcount beta counter analysis; type: cell-based; conditions: for pKi: read-out: Ki; for Ki: read-out: pKi (converted)
Melanocortin receptor 4 [2] = molecular target: T1, Melanocortin receptor 4 (Homo sapiens, UniProt P32245); test: Displacement of [125I]-NDP-alpha-MSH from human MC4R expressed in CHO cells by Topcount beta counter analysis; type: cell-based; conditions: for pKi: read-out: Ki; for Ki: read-out: pKi (converted)
Melanocortin receptor 5 = Melanocortin receptor 5 (Homo sapiens, UniProt P33032); test: Displacement of [125I]-NDP-alpha-MSH from human MC5R expressed in CHO cells by Topcount beta counter analysis; type: cell-based; conditions: for pKi: read-out: Ki; for Ki: read-out: pKi (converted)
Melanocortin receptor 4 [3] = molecular target: T1, Melanocortin receptor 4; test: Antagonist activity at human MC4R in HEK293SL cells assessed as beta-arrestin2 activation incubated for 30 mins in presence of alpha-MSH by BRET assay; type: functional, cell-based; conditions: filed as antagonist
Melanocortin receptor 4 [4] = molecular target: T1, Melanocortin receptor 4; test: Antagonist activity at human MC4R in HEK293SL cells assessed as Gs activation incubated for 30 mins in presence of alpha-MSH by BRET assay; type: functional, cell-based; conditions: filed as antagonist
Melanocortin receptor 4 [5] = molecular target: T1, Melanocortin receptor 4; test: Antagonist activity at human MC4R in HEK293SL cells assessed as beta-arrestin2 activation incubated for 30 mins in presence of NDP-alpha-MSH by BRET assay; type: functional, cell-based; conditions: filed as antagonist
Melanocortin receptor 4 [6] = molecular target: T1, Melanocortin receptor 4; test: Antagonist activity at human MC4R in HEK293SL cells assessed as G15 activation incubated for 30 mins in presence of NDP-alpha-MSH by BRET assay; type: functional, cell-based; conditions: filed as antagonist
Homo sapiens [7] = species on record: Homo sapiens; test: Selectivity ratio of Ki for human […] expressed in CHO cells to Ki for human MC4R expressed in CHO cells; type: cell-based
Melanocortin receptor 4 [8] = molecular target: T1, Melanocortin receptor 4; test: Antagonist activity at human MC4R in HEK293SL cells assessed as Gs activation incubated for 30 mins in presence of NDP-alpha-MSH by BRET assay; type: functional, cell-based; conditions: filed as antagonist
Homo sapiens [9] = species on record: Homo sapiens; test: Selectivity ratio of Ki for human MC1R expressed in CHO cells to Ki for human MC4R expressed in CHO cells; type: cell-based
[10] = molecular target: T2, Type-1 angiotensin II receptor (Homo sapiens) (UniProt P30556); test: Inhibition of human AT1R expressed in CHO cells at 50 uM by Topcount beta counter analysis relative to control; type: cell-based
T2 sequence (whole entry): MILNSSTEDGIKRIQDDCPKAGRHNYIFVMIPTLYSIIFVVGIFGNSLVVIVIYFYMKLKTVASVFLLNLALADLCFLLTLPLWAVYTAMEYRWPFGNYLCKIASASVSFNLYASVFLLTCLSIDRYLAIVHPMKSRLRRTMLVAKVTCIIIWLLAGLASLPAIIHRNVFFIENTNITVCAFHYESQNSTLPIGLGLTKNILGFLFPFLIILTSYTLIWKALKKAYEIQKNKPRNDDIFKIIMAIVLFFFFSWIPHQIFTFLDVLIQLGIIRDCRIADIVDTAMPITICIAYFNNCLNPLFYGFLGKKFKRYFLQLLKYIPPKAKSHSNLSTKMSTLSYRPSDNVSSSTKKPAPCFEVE

Melanocortin receptor 4 [11] = molecular target: T1, Melanocortin receptor 4; test: Antagonist activity at human MC4R in HEK293SL cells assessed as G15 activation incubated for 30 mins in presence of alpha-MSH by BRET assay; type: functional, cell-based; conditions: filed as antagonist
Melanocortin receptor 4 [12] = molecular target: T1, Melanocortin receptor 4; test: Antagonist activity at human MC4R in HEK293SL cells assessed as Gs activation at 30 uM incubated for 30 mins in presence of alpha-MSH by BRET assay; type: functional, cell-based; conditions: filed as antagonist
Homo sapiens [13] = species on record: Homo sapiens; test: Selectivity ratio of Ki for human MC3R expressed in HEK293 cells to Ki for human MC4R expressed in CHO cells; type: cell-based

Melanocortin receptor 3, sequence (P41968 whole entry): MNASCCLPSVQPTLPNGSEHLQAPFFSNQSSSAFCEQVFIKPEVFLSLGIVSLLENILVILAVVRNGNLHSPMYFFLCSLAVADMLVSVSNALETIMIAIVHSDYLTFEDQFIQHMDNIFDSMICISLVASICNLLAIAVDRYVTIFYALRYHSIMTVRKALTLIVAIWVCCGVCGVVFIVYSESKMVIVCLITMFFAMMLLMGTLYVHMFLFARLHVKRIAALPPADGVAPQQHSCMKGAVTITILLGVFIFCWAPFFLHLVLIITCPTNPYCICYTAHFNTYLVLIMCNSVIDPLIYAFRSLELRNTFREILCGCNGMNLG
T1 sequence (P32245 whole entry): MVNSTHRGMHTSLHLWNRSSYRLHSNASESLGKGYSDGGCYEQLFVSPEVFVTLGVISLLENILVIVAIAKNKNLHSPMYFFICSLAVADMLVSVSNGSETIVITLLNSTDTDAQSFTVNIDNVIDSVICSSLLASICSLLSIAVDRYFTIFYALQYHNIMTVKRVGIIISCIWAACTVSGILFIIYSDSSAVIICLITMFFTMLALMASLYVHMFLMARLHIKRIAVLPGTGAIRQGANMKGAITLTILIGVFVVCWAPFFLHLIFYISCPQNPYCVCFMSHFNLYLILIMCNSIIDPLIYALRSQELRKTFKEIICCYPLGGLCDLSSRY
Melanocortin receptor 5, sequence (P33032 whole entry): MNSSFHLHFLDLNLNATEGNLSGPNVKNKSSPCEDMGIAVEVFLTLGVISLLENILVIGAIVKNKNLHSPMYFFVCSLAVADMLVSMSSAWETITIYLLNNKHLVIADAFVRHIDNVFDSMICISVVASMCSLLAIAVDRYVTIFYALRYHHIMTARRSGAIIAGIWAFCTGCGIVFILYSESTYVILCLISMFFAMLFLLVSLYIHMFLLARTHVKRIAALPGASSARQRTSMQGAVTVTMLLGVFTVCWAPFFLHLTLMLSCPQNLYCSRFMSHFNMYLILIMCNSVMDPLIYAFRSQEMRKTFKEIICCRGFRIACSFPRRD
Melanocyte-stimulating hormone receptor, sequence (Q01726 whole entry): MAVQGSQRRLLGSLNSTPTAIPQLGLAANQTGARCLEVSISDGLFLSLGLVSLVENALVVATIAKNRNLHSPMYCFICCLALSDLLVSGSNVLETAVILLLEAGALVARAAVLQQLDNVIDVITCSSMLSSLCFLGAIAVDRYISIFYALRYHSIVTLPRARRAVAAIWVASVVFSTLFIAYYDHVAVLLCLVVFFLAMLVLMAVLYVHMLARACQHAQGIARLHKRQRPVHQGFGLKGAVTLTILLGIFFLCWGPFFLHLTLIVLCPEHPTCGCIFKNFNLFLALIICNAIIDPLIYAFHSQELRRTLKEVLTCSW

Compound `CC(C)C[C@H](NC(=O)[C@H](CCCCN)NC(=O)[C@H](Cc1ccccc1)NC(=O)[C@H](CCC(N)=O)NC(=O)[C@@H]1CSSC[C@H](NC(=O)[C@H](CCC(N)=O)NC(=O)[C@@H]2CSSC[C@H](NC(=O)[C@H](Cc3ccc(O)cc3)NC(=O)[C@H](Cc3c[nH]cn3)NC(=O)[C@H](Cc3ccccc3)NC(=O)[C@@H](N)CC(C)C)C(=O)N[C@@H](CCC(N)=O)C(=O)N2)C(=O)N2CCC[C@H]2C(=O)N2CCC[C@H]2C(=O)NCC(=O)N[C@@H](Cc2ccccc2)C(=O)N[C@@H](CCCCN)C(=O)NCC(=O)N[C@@H](CCCCN)C(=O)N[C@@H](Cc2ccccc2)C(=O)N1)C(=O)N[C@@H](CCCNC(=N)N)C(=O)N1CCC[C@H]1C(=O)N1CCC[C@H]1C(=O)O` (H-LFHYCQCQCPPGFKGKFCQFKLRPP-OH; disulfide 5-7, 9-18) has a pKi [1] of 6.28, a Ki [1] of 513 nM and a pKi (Melanocortin receptor 3) of 7.08. It also gave a Ki (Melanocortin receptor 3) of 69.2 nM, a pKi (Melanocortin receptor 4 [2]) of 7.35 and a Ki (Melanocortin receptor 4 [2]) of 41.7 nM. For the same compound, the pKi (Melanocortin receptor 5) was 7.52 and the Ki (Melanocortin receptor 5) was 28.8 nM.

Compound `CC(C)C[C@H](NC(=O)[C@H](CCCCN)NC(=O)[C@H](Cc1ccccc1)NC(=O)[C@H](CCC(N)=O)NC(=O)[C@@H]1CSSC[C@H](NC(=O)[C@H](Cc2ccc(O)cc2)NC(=O)[C@H](Cc2c[nH]cn2)NC(=O)[C@H](Cc2ccccc2)NC(=O)[C@@H](N)CC(C)C)C(=O)N[C@@H](CCC(N)=O)C(=O)N[C@@H](C)C(=O)N[C@@H](CCC(N)=O)C(=O)N[C@@H](C)C(=O)N2CCC[C@H]2C(=O)N2CCC[C@H]2C(=O)NCC(=O)N[C@@H](Cc2ccccc2)C(=O)N[C@@H](CCCCN)C(=O)NCC(=O)N[C@@H](CCCCN)C(=O)N[C@@H](Cc2ccccc2)C(=O)N1)C(=O)N[C@@H](CCCNC(=N)N)C(=O)N1CCC[C@H]1C(=O)N1CCC[C@H]1C(=O)O` (H-LFHYCQAQAPPGFKGKFCQFKLRPP-OH; disulfide 5-18) has a Ki [1] of 912 nM, a Ki (Melanocortin receptor 3) of 170 nM and a Ki (Melanocortin receptor 4 [2]) of 117 nM. It also gave a Ki (Melanocortin receptor 5) of 195 nM.

`CC(C)C[C@@H]1NC(=O)[C@H](CCC(N)=O)NC(=O)[C@@H](NC(=O)[C@H](Cc2ccc(O)cc2)NC(=O)[C@H](Cc2c[nH]cn2)NC(=O)[C@H](Cc2ccccc2)NC(=O)[C@@H](N)CC(C)C)CSSC[C@@H](C(=O)N[C@@H](CCC(N)=O)C(=O)N[C@@H](Cc2ccccc2)C(=O)N[C@@H](CCCCN)C(=O)N[C@@H](CC(C)C)C(=O)N[C@@H](CCCNC(=N)N)C(=O)N2CCC[C@H]2C(=O)N2CCC[C@H]2C(=O)O)NC(=O)[C@H](Cc2ccccc2)NC(=O)[C@H](CCCCN)NC(=O)CNC(=O)[C@H](CCCCN)NC(=O)[C@H](Cc2ccccc2)NC(=O)CNC(=O)[C@@H]2CCCN2C(=O)[C@@H]2CCCN2C(=O)[C@H](CC(C)C)NC(=O)[C@H](CCC(N)=O)NC1=O` (H-LFHYCQLQLPPGFKGKFCQFKLRPP-OH; disulfide 5-18) gave a Ki [1] of 398 nM, a Ki (Melanocortin receptor 3) of 275 nM and a Ki (Melanocortin receptor 4 [2]) of 93.3 nM. It also gave a Ki (Melanocortin receptor 5) of 117 nM.

Compound H-LFHYQQKQKPPGFKGKFQQFKLRPP-OH has a Kb (Melanocortin receptor 4 [3]) of 33000 nM, a pKi [1] of 6.71 and a Ki [1] of 182 nM. It also gave a Kb (Melanocortin receptor 4 [4]) of 28000 nM, a Kb (Melanocortin receptor 4 [5]) of 3800 nM and a Kb (Melanocortin receptor 4 [6]) of 3000 nM. The pKi (Melanocortin receptor 3) was 7.39, the Ki (Melanocortin receptor 3) was 38.9 nM and the Ratio Ki (Homo sapiens [7]) was 13. It also gave a Kb (Melanocortin receptor 4 [8]) of 32300 nM, a Ratio Ki (Homo sapiens [9]) of 13 and an inhibition [10] of 77%. The Kb (Melanocortin receptor 4 [11]) was 6000 nM, the Activity (Melanocortin receptor 4 [12]) was “Active” and the pKi (Melanocortin receptor 4 [2]) was 7.82. The Ki (Melanocortin receptor 4 [2]) was 13.5 nM, the Ratio Ki (Homo sapiens [13]) was 3 and the pKi (Melanocortin receptor 5) was 6.71. For the same compound, the Ki (Melanocortin receptor 5) was 182 nM.

In the case of `CC(C)C[C@H](NC(=O)[C@H](CCCCN)NC(=O)[C@H](Cc1ccccc1)NC(=O)[C@H](CCC(N)=O)NC(=O)[C@H](CSC(N)=O)NC(=O)[C@H](Cc1ccccc1)NC(=O)[C@H](CCCCN)NC(=O)CNC(=O)[C@H](CCCCN)NC(=O)[C@H](Cc1ccccc1)NC(=O)CNC(=O)[C@@H]1CCCN1C(=O)[C@@H]1CCCN1C(=O)[C@H](CCCCN)NC(=O)[C@H](CCC(N)=O)NC(=O)[C@H](CCCCN)NC(=O)[C@H](CCC(N)=O)NC(=O)[C@H](CSC(N)=O)NC(=O)[C@H](Cc1ccc(O)cc1)NC(=O)[C@H](Cc1cnc[nH]1)NC(=O)[C@H](Cc1ccccc1)NC(=O)[C@@H](N)CC(C)C)C(=O)N[C@@H](CCCNC(=N)N)C(=O)N1CCC[C@H]1C(=O)N1CCC[C@H]1C(=O)O` (H-LFHYC(Carbamoyl)QKQKPPGFKGKFC(Carbamoyl)QFKLRPP-OH), the Ki [1] was 110 nM, the Ki (Melanocortin receptor 3) was 37.2 nM and the Ki (Melanocortin receptor 4 [2]) was 12.6 nM. The Ki (Melanocortin receptor 5) was 135 nM.

`CC(C)C[C@H](NC(=O)[C@H](CCCCN)NC(=O)[C@H](Cc1ccccc1)NC(=O)[C@H](CCC(N)=O)NC(=O)[C@@H]1CSSC[C@H](NC(=O)[C@@H](Cc2ccc(O)cc2)NC(=O)[C@H](Cc2c[nH]cn2)NC(=O)[C@H](Cc2ccccc2)NC(=O)[C@@H](N)CC(C)C)C(=O)N[C@@H](CCC(N)=O)C(=O)N[C@@H](CCCCN)C(=O)N[C@@H](CCC(N)=O)C(=O)N[C@@H](CCCCN)C(=O)N2CCC[C@H]2C(=O)N2CCC[C@H]2C(=O)NCC(=O)N[C@@H](Cc2ccccc2)C(=O)N[C@@H](CCCCN)C(=O)NCC(=O)N[C@@H](CCCCN)C(=O)N[C@@H](Cc2ccccc2)C(=O)N1)C(=O)N[C@@H](CCCNC(=N)N)C(=O)N1CCC[C@H]1C(=O)N1CCC[C@H]1C(=O)O` was tested, and the Ki [1] was 85.1 nM, the Ki (Melanocortin receptor 3) was 30.9 nM and the Ki (Melanocortin receptor 4 [2]) was 6.92 nM. The Ki (Melanocortin receptor 5) was 25.7 nM.
